Reference: US4774381A, “Herbicide resistant tobacco” (E. I. Du Pont de Nemours and Company, priority 1985, dated 1988)

Experiments:
[1] = test system: Isolate 23 (S4/+) cell line; assay: Callus growth test; assay type: cell-based, Nicotiana tabacum; conditions: 14 days
Protocol: (§1) Callus growth tests were conducted substantially according to the following procedure. Approximately 50 mg callus tissue, grown on non-selective media, was spread over 7 cm diameter paper filter discs (Whatman No. 1), which were placed on the medium surface of petri dishes containing C1 agar media and varying concentrations of chlorsulfuron. The resulting cultures were incubated for 14 days at 25±1°, under fluorescent lamps programmed to provide a 16-hour photoperiod per day. At the conclusion of the incubation period, tissue was scraped from each filter disc and weighed. The final fresh weights were recorded, and means and standard errors of the means determined for all cases. The significance of differences between responses of individual cell lines to various concentrations of chlorsulfuron was determined at a probability level of 5% by a t-test for populations having different standard deviations, as described by Snedecor, et al., Statistical Methods (Iowa State University Press, Ames, Iowa, (1967), pp. 114-116).
(§2) The isolates tested were established from plants produced by self-fertilization of a S4/+ heterozygote produced by two successive backcrosses of a regenerated mutant plant to normal plants. In addition, growth responses were determined for cell cultures initiated from two individuals of the same genotype with respect to the S4 mutation. The genotypes of these cell lines were confirmed by progeny analyses of the plants from which they were derived. These precautions were intended to eliminate background variability which might otherwise obscure the effects of the resistance mutation.

[2] = test system: Isolate 24 (S4/+) cell line; assay: Callus growth test; assay type: cell-based, Nicotiana tabacum; conditions: 14 days
Protocol: as §1, §2

[3] = test system: Isolate 7 (+/+) cell line; assay: Callus growth test; assay type: cell-based, Nicotiana tabacum; conditions: 14 days
Protocol: as §1, §2

H1 (parent) callus = assay: Callus growth test with chlorsulfuron and structural analogues; assay type: cell-based, Nicotiana tabacum; conditions: 10 ppb compound, 2 weeks in the dark
Protocol: (§3) In these growth tests, petri dishes containing C1 agar medium and 10 ppb of the sulfonamide herbicide chlorsulfuron and Compounds A through E were prepared. A sterile filter paper disc was placed in the center of each plate, and inoculated with 250 mg of callus tissue homozygous for the S4 mutation, or callus tissue derived from the haploid parent H1. The resulting cultures were incubated at 25° in the dark for 2 weeks. At the conclusion of the incubation period, filter discs containing callus cells were removed from culture dishes, placed on a Buchner funnel, and gentle suction applied to remove excess water. The resulting callus mass was then carefully scraped from the filter disc and weighed. Four replicates were included in each experiment.

S4/S4 callus = assay: as above; assay type: cell-based, Nicotiana tabacum; conditions: 10 ppb compound, 2 weeks in the dark
Protocol: as §3

[4] = test system: homozygous mutant (S4) plants; assay: Foliar spray whole plant test; assay type: in vivo, Nicotiana tabacum
Protocol: (§4) Further studies of the effect of the S4 mutation on whole plant response to chlorsulfuron were conducted with plants of the parental variety and progeny of homozygous mutant and homozygous normal isolates (Nos. 16 and 1, respectively) of the previously described backcross program. Accordingly, plants of the latter two types were derived, but separated by four generations, from the initial S4 mutant plant regenerated from callus culture.
(§5) Plants at the 4-5 leaf stage were treated with foliar sprays of an aqueous solution containing 10% (v/v) acetone, 0.2% polyoxyethylene sorbitan monolaurate (Tween 20 ), and 1,3, 10, 30 or 100 ppm chlorsulfuron. Each plant received 5 mL of a spray solution. Two weeks after treatment, plants were evaluated for phytotoxicity and shoot heights were measured. […] At this lowest level of application, apical buds and youngest leaves of these sensitive plants were chlorotic. […] These symptoms were more pronounced with increasing chlorsulfuron concentrations. […] In contrast, homozygous mutant plants were unaffected by treatment with chlorsulfuron, even at the highest test concentration of 100 ppm.

[5] = test system: parental and homozygous normal plants; assay: Foliar spray whole plant test; assay type: in vivo, Nicotiana tabacum; conditions: 5 mL spray
Protocol: as §4, §5

[6] = test system: pea seedlings and root cultures; conditions: medium supplementation; cited from earlier work
[7] = test system: highly resistant tobacco cell line "A"; assay: Growth test of highly resistant cell line; assay type: cell-based, Nicotiana tabacum
Source text: Resistant colonies were selected as they appeared and transferred to medium containing this same elevated level of sulfometuron-methyl. Several cell lines that continued to grow during subsequent passages in the presence of 200 ppb of the herbicide were isolated. […] A large part of this resistance is the result of the S4 mutation, for which this cell line is homozygous. However, because cell line A is inhibited by 100 ppb sulfometuron-methyl to approximatey the same degree as its parent S4/S4 is inhibited by 10 ppb, it appears that the new event increased resistance ten-fold beyond that conferred by the S4/S4 genotype.

Salmonella typhimurium = conditions: in the presence of valine; reversed by isoleucine; cited from earlier work
[8] = test system: yeast Saccharomyces cerevisiae; conditions: medium supplementation; cited from earlier work
[9] = Nicotiana tabacum, 336 h, chlorsulfuron 0.3 ppb, read-out: % of fresh weight at 0 ppb
[10] = Nicotiana tabacum, 336 h, chlorsulfuron 1.0 ppb, read-out: % of fresh weight at 0 ppb
[11] = Nicotiana tabacum, 336 h, chlorsulfuron 3.0 ppb, read-out: % of fresh weight at 0 ppb
[12] = Nicotiana tabacum, 336 h, chlorsulfuron 10.0 ppb, read-out: % of fresh weight at 0 ppb
[13] = Nicotiana tabacum, 336 h, chlorsulfuron 30.0 ppb, read-out: % of fresh weight at 0 ppb

SMILES: COc1nc(C)nc(NC(=O)NS(=O)(=O)c2ccccc2Cl)n1 [Chlorsulfuron, chlorsulfuron]
- activity at 0.0003 µg/mL [1, 9]: 95.8%
- activity at 0.001 µg/mL [1, 10]: 93.8%
- activity at 0.003 µg/mL [1, 11]: 89.9%
- activity at 0.01 µg/mL [1, 12]: 57.6%
- activity at 0.03 µg/mL [1, 13]: 28.1%
- Fr. Wt. ([1]; chlorsulfuron 0.1 ppb): 2803 ± 153 mg
- Fr. Wt. ([1]; chlorsulfuron 0.3 ppb): 2559 ± 174 mg
- Fr. Wt. ([1]; chlorsulfuron 1.0 ppb): 2505 ± 134 mg
- Fr. Wt. ([1]; chlorsulfuron 3.0 ppb): 2401 ± 218 mg
- Fr. Wt. ([1]; chlorsulfuron 10.0 ppb): 1537 ± 90 mg
- Fr. Wt. ([1]; chlorsulfuron 30.0 ppb): 749 ± 54 mg
- activity at 0.0003 µg/mL [2, 9]: 98.9%
- activity at 0.001 µg/mL [2, 10]: 87.5%
- activity at 0.003 µg/mL [2, 11]: 73%
- activity at 0.01 µg/mL [2, 12]: 76.4%
- activity at 0.03 µg/mL [2, 13]: 55.1%
- Fr. Wt. ([2]; chlorsulfuron 0.1 ppb): 2895 ± 187 mg
- Fr. Wt. ([2]; chlorsulfuron 0.3 ppb): 2842 ± 124 mg
- Fr. Wt. ([2]; chlorsulfuron 1.0 ppb): 2515 ± 155 mg
- Fr. Wt. ([2]; chlorsulfuron 3.0 ppb): 2099 ± 129 mg
- Fr. Wt. ([2]; chlorsulfuron 10.0 ppb): 2196 ± 235 mg
- Fr. Wt. ([2]; chlorsulfuron 30.0 ppb): 1585 ± 129 mg
- activity at 0.0001 µg/mL ([3]; Nicotiana tabacum, 336 h, chlorsulfuron 0.1 ppb, read-out: % of fresh weight at 0 ppb): 93.1%
- activity at 0.0003 µg/mL [3, 9]: 59.8%
- activity at 0.001 µg/mL [3, 10]: 9.2%
- activity at 0.003 µg/mL [3, 11]: 2.5%
- Fr. Wt. ([3]; chlorsulfuron 0.1 ppb): 2170 ± 94 mg
- Fr. Wt. ([3]; chlorsulfuron 0.3 ppb): 1395 ± 116 mg
- Fr. Wt. ([3]; chlorsulfuron 1.0 ppb): 215 ± 33 mg
- Fr. Wt. ([3]; chlorsulfuron 3.0 ppb): 58 ± 4 mg
- Mean Fresh Weight (H1 (parent) callus): 0 g
- Mean Fresh Weight (S4/S4 callus): 4.42 g
- increase of resistance of plants by S4 mutation ([4]; homozygous state): at least 100 fold
- phytotoxicity two weeks after foliar spray ([4]; up to highest test concentration of 100 ppm chlorsulfuron): unaffected
- phytotoxicity two weeks after foliar spray ([5]; 1 ppm chlorsulfuron, 4-5 leaf stage): developed symptoms of phytotoxicity
- phytotoxicity two weeks after foliar spray ([5]; 3 ppm chlorsulfuron): chlorosis was more severe and growth retardation readily apparent
- phytotoxicity two weeks after foliar spray ([5]; 100 ppm chlorsulfuron): extreme growth inhibition, chlorosis, and necrosis
- reversal of growth inhibition [6]: prevented by supplementation of the medium with isoleucine and valine

SMILES: COC(=O)c1ccccc1S(=O)(=O)NC(=O)Nc1nc(C)cc(C)n1 [Sulfometuron-methyl, sulfometuron-methyl]
- increase of resistance beyond that conferred by the S4/S4 genotype ([7]; 100 ppb on cell line A versus 10 ppb on S4/S4): ten-fold
- activity at 0.001 µg/mL ([7]; Nicotiana tabacum, sulfometuron-methyl 1 ppb, cell line "A", read-out: % of fresh weight at 0 ppb): 90%
- activity at 0.01 µg/mL ([7]; Nicotiana tabacum, sulfometuron-methyl 10 ppb, cell line "A", read-out: % of fresh weight at 0 ppb): 74%
- activity at 0.1 µg/mL ([7]; Nicotiana tabacum, sulfometuron-methyl 100 ppb, cell line "A", read-out: % of fresh weight at 0 ppb): 24%
- activity at 1 µg/mL ([7]; Nicotiana tabacum, sulfometuron-methyl 1000 ppb, cell line "A", read-out: % of fresh weight at 0 ppb): 10%
- concentration allowing growth relative to concentration that completely inhibits a normal cell line ([7]; growth at a greatly reduced rate): 1000 times
- Fr. wt. ([7]; sulfometuron-methyl 1 ppb, cell line "A"): 2379 ± 243 mg
- Fr. wt. ([7]; sulfometuron-methyl 10 ppb, cell line "A"): 1952 ± 133 mg
- Fr. wt. ([7]; sulfometuron-methyl 100 ppb, cell line "A"): 629 ± 72 mg
- Fr. wt. ([7]; sulfometuron-methyl 1000 ppb, cell line "A"): 263 ± 83 mg
- growth effect (Salmonella typhimurium): inhibits growth
- reversal of growth inhibition [8]: restored by addition of isoleucine, leucine, and valine
